biological target: SHP2 (Homo sapiens (Human), UniProt Q06124); experiment: SHP2 Allosteric Inhibition Assay (DiFMUP prompt fluorescence); assay type: biochemical; conditions: 0.25 nM SHP2 activated with 0.5 μM peptide IRS1_pY1172(dPEG8)pY1222; substrate DiFMUP 100 μM; 25° C.

IC50, ≥ 10000 nM:
C[C@@H]1OCC2(CCN(c3cnc4c(N5CCc6cccc(-c7cnn(C)c7)c6C5)n[nH]c4n3)CC2)[C@@H]1N [Compound 358]

IC50, < 1000 nM:
CC(C)c1nc(-c2ccc3c(n2)CCCN3c2n[nH]c3nc(N4CCC5(CC4)CO[C@@H](C)[C@H]5N)cnc23)no1 [Compound 321, (3S,4S)-3-methyl-8-(3-{6-[5-(propan-2-yl)-1,2,4-oxadiazol-3-yl]-1,2,3,4-tetrahydro-1,5-naphthyridin-1-yl}-1H-pyrazolo[3,4-b]pyrazin-6-yl)-2-oxa-8-azaspiro[4.5]decan-4-amine; formic acid]
CC(=O)N1CCN(c2n[nH]c3nc(N4CCC5(CC4)CO[C@@H](C)[C@H]5N)cnc23)c2ccc(-c3cnn(C)c3)cc21 [Compound 323]
C[C@@H]1OCC2(CCN(c3cnc4c(N5CCOc6nc(-c7cnn(C)c7)ccc65)n[nH]c4n3)CC2)[C@@H]1N [Compound 324]
C[C@@H]1OCC2(CCN(c3cnc4c(N5CCN(S(C)(=O)=O)c6ccccc65)n[nH]c4n3)CC2)[C@@H]1N [Compound 325]
C[C@@H]1OCC2(CCN(c3cnc4c(N5CC[C@@H](C(F)F)c6cc(C#N)ccc65)n[nH]c4n3)CC2)[C@@H]1N [Compound 326]
C[C@@H]1OCC2(CCN(c3cnc4c(N5CC[C@H](C(F)F)c6cc(C#N)ccc65)n[nH]c4n3)CC2)[C@@H]1N [Compound 327]
Cc1coc(-c2ccc3c(n2)CCCN3c2n[nH]c3nc(N4CCC5(CC4)CO[C@@H](C)[C@H]5N)cnc23)n1 [Compound 328]
CNC(=O)c1ccc2c(c1)NCCN2c1n[nH]c2nc(N3CCC4(CC3)CO[C@@H](C)[C@H]4N)cnc12 [Compound 329, 1-{6-[(3S,4S)-4-amino-3-methyl-2-oxa-8-azaspiro[4.5]decan-8-yl]-1H-pyrazolo[3,4-b]pyrazin-3-yl}-N-methyl-1,2,3,4-tetrahydroquinoxaline-6-carboxamide]
Cc1cccc2c1CCCN2c1n[nH]c2nc(N3CCC4(CC3)CO[C@@H](C)[C@H]4N)cnc12 [Compound 330]
CNC(=O)N1CCN(c2n[nH]c3nc(N4CCC5(CC4)CO[C@@H](C)[C@H]5N)cnc23)c2cccnc21 [Compound 331, 1-{6-[(3S,4S)-4-amino-3-methyl-2-oxa-8-azaspiro[4.5]decan-8-yl]-1H-pyrazolo[3,4-b]pyrazin-3-yl}-N-methyl-1H,2H,3H,4H-pyrido[2,3-b]pyrazine-4-carboxamide]
C[C@@H]1OCC2(CCN(c3cnc4c(N5CCNc6cc(-c7ccnnc7)ccc65)n[nH]c4n3)CC2)[C@@H]1N [Compound 332]
COCCn1cc(-c2ccc3c(n2)CCCN3c2n[nH]c3nc(N4CCC5(CC4)CO[C@@H](C)[C@H]5N)cnc23)cn1 [Compound 333, (3S,4S)-8-(3-{6-[1-(2-methoxyethyl)-1H-pyrazol-4-yl]-1,2,3,4-tetrahydro-1,5-naphthyridin-1-yl}-1H-pyrazolo[3,4-b]pyrazin-6-yl)-3-methyl-2-oxa-8-azaspiro[4.5]decan-4-amine]
CCn1cc(-c2ccc3c(n2)CCCN3c2n[nH]c3nc(N4CCC5(CC4)CO[C@@H](C)[C@H]5N)cnc23)cn1 [Compound 334, (3S,4S)-8-{3-[6-(1-ethyl-1H-pyrazol-4-yl)-1,2,3,4-tetrahydro-1,5-naphthyridin-1-yl]-1H-pyrazolo[3,4-b]pyrazin-6-yl}-3-methyl-2-oxa-8-azaspiro[4.5]decan-4-amine]
C[C@@H]1OCC2(CCN(c3cnc4c(N5CCCc6c5ccnc6C(N)=O)n[nH]c4n3)CC2)[C@@H]1N [Compound 335, 1-{6-[(3S,4S)-4-amino-3-methyl-2-oxa-8-azaspiro[4.5]decan-8-yl]-1H-pyrazolo[3,4-b]pyrazin-3-yl}-1,2,3,4-tetrahydro-1,6-naphthyridine-5-carboxamide]
C[C@@H]1OCC2(CCN(c3cnc4c(N5CCCc6nc(C7=CCOC7)ccc65)n[nH]c4n3)CC2)[C@@H]1N [Compound 336]
C[C@@H]1OCC2(CCN(c3cnc4c(N5CCc6ccc(-c7cnn(C)c7)cc6C5)n[nH]c4n3)CC2)[C@@H]1N [Compound 337]
C[C@@H]1OCC2(CCN(c3cnc4c(N5CCc6cc(-c7cnn(C)c7)ccc6C5)n[nH]c4n3)CC2)[C@@H]1N [Compound 338]
N[C@@H]1CCC12CCN(c1cnc3c(N4CCCc5ncccc54)n[nH]c3n1)CC2 [Compound 339, (1R)-7-[3-(1,2,3,4-tetrahydro-1,5-naphthyridin-1-yl)-1H-pyrazolo[3,4-b]pyrazin-6-yl]-7-azaspiro[3.5]nonan-1-amine]
N[C@H]1CCC12CCN(c1cnc3c(N4CCCc5ncccc54)n[nH]c3n1)CC2 [Compound 340, (1S)-7-[3-(1,2,3,4-tetrahydro-1,5-naphthyridin-1-yl)-1H-pyrazolo[3,4-b]pyrazin-6-yl]-7-azaspiro[3.5]nonan-1-amine]
C[C@@H]1OCC2(CCN(c3cnc4c(N5CCS(=O)(=O)c6ccccc65)n[nH]c4n3)CC2)[C@@H]1N [Compound 341]
CNC(=O)N1CCN(c2n[nH]c3nc(N4CCC5(CC4)CO[C@@H](C)[C@H]5N)cnc23)c2ccccc21 [Compound 342]
C[C@@H]1OCC2(CCN(c3cnc4c(N5CCCc6c(NS(C)(=O)=O)cccc65)n[nH]c4n3)CC2)[C@@H]1N [Compound 343, N-(1-{6-[(3S,4S)-4-amino-3-methyl-2-oxa-8-azaspiro[4.5]decan-8-yl]-1H-pyrazolo[3,4-b]pyrazin-3-yl}-1,2,3,4-tetrahydroquinolin-5-yl)methanesulfonamide]
C[C@@H]1OCC2(CCN(c3cnc4c(N5CCCc6c5cccc6N(S(C)(=O)=O)S(C)(=O)=O)n[nH]c4n3)CC2)[C@@H]1N [Compound 344, N-(1-{6-[(3S,4S)-4-amino-3-methyl-2-oxa-8-azaspiro[4.5]decan-8-yl]-1H-pyrazolo[3,4-b]pyrazin-3-yl}-1,2,3,4-tetrahydroquinolin-5-yl)-N-methanesulfonylmethanesulfonamide]
Cc1ccc2c(c1S(C)(=O)=O)CCCN2c1n[nH]c2nc(N3CCC4(CC3)CO[C@@H](C)[C@H]4N)cnc12 [Compound 345]
C[C@@H]1CCN(c2n[nH]c3nc(N4CCC5(CC4)CO[C@@H](C)[C@H]5N)cnc23)c2ccc(C(=O)N(C)C)nc21 [Compound 347, (8R)-5-{6-[(3S,4S)-4-amino-3-methyl-2-oxa-8-azaspiro[4.5]decan-8-yl]-1H-pyrazolo[3,4-b]pyrazin-3-yl}-N,N,8-trimethyl-5,6,7,8-tetrahydro-1,5-naphthyridine-2-carboxamide]
C[C@@H]1OCC2(CCN(c3cnc4c(N5CCCc6nc(-c7cccnn7)ccc65)n[nH]c4n3)CC2)[C@@H]1N [Compound 348]
C[C@@H]1OCC2(CCN(c3cnc4c(N5CCCc6nc(-c7cnccn7)ccc65)n[nH]c4n3)CC2)[C@@H]1N [Compound 350]
C[C@@H]1OCC2(CCN(c3cnc4c(N5CCCc6nc(-c7cnn(CCO)c7)ccc65)n[nH]c4n3)CC2)[C@@H]1N [Compound 351, 2-[4-(5-{6-[(3S,4S)-4-amino-3-methyl-2-oxa-8-azaspiro[4.5]decan-8-yl]-1H-pyrazolo[3,4-b]pyrazin-3-yl}-5,6,7,8-tetrahydro-1,5-naphthyridin-2-yl)-1H-pyrazol-1-yl]ethan-1-ol]
C[C@@H]1OCC2(CCN(c3cnc4c(N5CCCc6nc(CC#N)ccc65)n[nH]c4n3)CC2)[C@@H]1N [Compound 352]
Cc1nnc(-c2ccc3c(c2)[C@@H](C)CCN3c2n[nH]c3nc(N4CCC5(CC4)CO[C@@H](C)[C@H]5N)cnc23)o1 [Compound 353]
Cc1ccc2c(c1)CCCN2c1n[nH]c2nc(N3CCC4(CC3)CO[C@@H](C)[C@H]4N)cnc12 [Compound 354]
C[C@@H]1OCC2(CCN(c3cnc4c(N5CCCc6ccccc65)n[nH]c4n3)CC2)[C@@H]1N [Compound 355]
C[C@@H]1OCC2(CCN(c3cnc4c(N5CCCc6nc(-c7cncs7)ccc65)n[nH]c4n3)CC2)[C@@H]1N [Compound 356]
CC1c2ccccc2CCN1c1n[nH]c2nc(N3CCC4(CC3)CO[C@@H](C)[C@H]4N)cnc12 (stereo partly drawn) [Compound 357]
CCC(=O)N1CCN(c2n[nH]c3nc(N4CCC5(CC4)CO[C@@H](C)[C@H]5N)cnc23)c2ccccc21 [Compound 360]
Cc1csc(-c2ccc3c(n2)CCCN3c2n[nH]c3nc(N4CCC5(CC4)CO[C@@H](C)[C@H]5N)cnc23)n1 [Compound 361]
CNC(=O)c1ccc2c(n1)[C@@H](C)CCN2c1n[nH]c2nc(N3CCC4(CC3)CO[C@@H](C)[C@H]4N)cnc12 [Compound 362, (8S)-5-{6-[(3S,4S)-4-amino-3-methyl-2-oxa-8-azaspiro[4.5]decan-8-yl]-1H-pyrazolo[3,4-b]pyrazin-3-yl}-N,8-dimethyl-5,6,7,8-tetrahydro-1,5-naphthyridine-2-carboxamide]
CNC(=O)c1ccc2c(n1)[C@H](C)CCN2c1n[nH]c2nc(N3CCC4(CC3)CO[C@@H](C)[C@H]4N)cnc12 [Compound 363, (8R)-5-{6-[(3S,4S)-4-amino-3-methyl-2-oxa-8-azaspiro[4.5]decan-8-yl]-1H-pyrazolo[3,4-b]pyrazin-3-yl}-N,8-dimethyl-5,6,7,8-tetrahydro-1,5-naphthyridine-2-carboxamide]
C[C@@H]1OCC2(CCN(c3cnc4c(N5CC[C@H](C)c6nc(C(=O)N(C)C)ccc65)n[nH]c4n3)CC2)[C@@H]1N [Compound 364, (8S)-5-{6-[(3S,4S)-4-amino-3-methyl-2-oxa-8-azaspiro[4.5]decan-8-yl]-1H-pyrazolo[3,4-b]pyrazin-3-yl}-N,N,8-trimethyl-5,6,7,8-tetrahydro-1,5-naphthyridine-2-carboxamide]

IC50, 1000 to 10000 nM:
C[C@@H]1OCC2(CCN(c3cnc4c(N5CC(=O)Nc6ncncc65)n[nH]c4n3)CC2)[C@@H]1N [Compound 322]
C[C@@H]1OCC2(CCN(c3cnc4c(N5CCc6cccc(C#N)c6C5)n[nH]c4n3)CC2)[C@@H]1N [Compound 359]
